The source of these data is patent publication US20040009899A1, “Treating dominant disorders” (priority 2002, published 2004).

The test system of series [1] is endogenous mouse Hdh allele. In words: Western immunoblot of endogenous mouse htt expression in PNA-treated R6/1 mice. The format is in vivo. The note with it: any tissue examined (striatum, liver), any tested time point (4 or 6 days). Here is the method: Cannulation and microsurgery—method 1: B6CBA, R6/1, and R6/2 mice were obtained from The Jackson Laboratory (Bar Harbor, Me.). Mice were anesthetized via intraperitoneal (i.p.) injection with 100 mg/kg of a ketamine/xylazine solution containing 8 mg/mL ketamine and 1 mg/mL xylazine in 0.9% saline. Once anesthetized, each mouse was cannulated. Each anesthetized mouse was placed in a Stoelting Stereotaxic Frame with a mouse adapter (Stoelting Instruments, Wood Dale, Ill.). An incision was made using a scalpel, and the skin and tissue were pulled back with swabs to reveal the skull. The cannulation site was positioned for optimum access to the ventricle, at coordinates AP −0.2 mm, Horiz −1 mm from bregma. A cannula entry port and two bone screw ports were opened in the skull using a Dremel Flex Shaft Drill (Stoelting Instruments) with a 2.1 mm burr for the guide cannula port and a 0.7 mm burr for the bone screws (Fine Science Tools, Foster City, Calif.). Two 4.0 mm long bone screws (0.85 diameter) were placed far enough into the bone screw ports to fasten securely. […]
Following the treatment period, mice were anesthetized with ether and sacrificed by cervical dislocation. […] Following centrifugation, the supernatants were removed and protein concentrations were quantified by Bradford assays using a BSA standard. […]

Series [2] relates to mice. As to the kind of experiment: Toxicity observation (behavior, weight, motor function) during intraventricular PNA treatment. The format is in vivo. The note with it: 1.0 μL (25 μg/μL) into the ventricle every other day. The protocol:
Animal treatment and tissue preparation: Aliquots of 1.0 μL (25 μg/μL) of a PNA oligomer specific for the expanded human HD allele (HDs) or a scrambled control PNA (HDscr) were administered into the ventricle every other day by injection via the cannula.

The subject of series [3] is R6/2 mice. As to the kind of experiment: Clasping test. The series is classed as in vivo, mouse. The note with it: any group (2.0, 5.0 or 20.0 mg/kg i.p. every 48 hours). The protocol: Clasping test: Dystonic movement was assessed using a procedure adapted from Yamamoto and colleagues (Yamamoto et al., Cell, 101:57-66, 2000). Each animal was suspended by the tail for 15 seconds, and its behavior was videotaped for subsequent analysis. The number and duration of abnormal movements were recorded upon viewing the videotaped behavior. An abnormal movement was defined as any dystonic movement of hindlimbs and/or forelimbs and/or trunk during which the limbs were pulled in toward the body in a manner distinct from that observed in wild-type mice. The duration of dystonic movements was recorded as a percent of total time. Mice were assessed for clasping score and clasping duration. The test period was divided into 2-second increments.
In other experiments, R6/2 mice were divided into five groups (designated groups 1-5) containing eight to ten animals each. Groups 1-4 received either saline (group 1) or a specific amount of HDs (groups 2-4). Group 5 included untreated R6/2 mice. A sixth group included untreated non-transgenic B6CBA control mice. […]
At 9 weeks of age, the mice in each group received saline (group 1) or HDs at 2.0 mg/kg, 5.0 mg/kg, or 20.0 mg/kg (groups 2, 3, and 4, respectively) by i.p. injection every 48 hours. […] Weight stability, clasping behavior, motility, and motor skill were assessed weekly during the treatment period. […]

For series [4], the system named is R6/2 mice. In words: Brain weight / brain atrophy of treated R6/2 mice. The format is in vivo, mouse. The protocol:
Experiments were conducted to determine whether PNA-mediated inhibition of mutant huntingtin expression increased survival and/or reversed features of pathophysiology. R6/2 and non-transgenic mice were divided into two groups of three to five mice each, and treated with either HDs or ACSF for approximately ten weeks, beginning at five to six weeks of age. Treated animals received a dose of 0.15 mg/kg of the HDs PNA oligomer, administered by continuous infusion through an Alzet pump. All ACSF-treated transgenic mice died by three months of age.
At 9 weeks of age, the mice in each group received saline (group 1) or HDs at 2.0 mg/kg, 5.0 mg/kg, or 20.0 mg/kg (groups 2, 3, and 4, respectively) by i.p. injection every 48 hours. The injections continued through 13 weeks of age (i.e., treatment for […]). Weight stability, clasping behavior, motility, and motor skill were assessed weekly during the treatment period. At the time of death or after the treatment period, the brain of each mouse was removed using standard methods. The brains were divided into hemispheres, and one hemisphere of each brain was saved for protein and mRNA analysis. The remaining hemispheres were fixed directly in 10% formalin for 5-7 days. After fixing, the brain hemispheres were weighed individually and processed for sectioning and pathophysiology.

As to “HDs: sense PNA oligomer, 14 residues, 5′-GGACTGCCGTGCCG-3′ (SEQ ID NO:3), specific for the expanded human HD allele (all peptide nucleic acid (PNA))”, the “effect on expression of the endogenous mouse Hdh allele” value in series [1] is listed as “Neither HDs nor HDscr had any effect”. Also, the “toxicity as measured by weight or motor function relative to untreated animals” value in series [2] is “no effects of toxicity”. For the same substance, the “clasping behavior over the treatment period” value in series [3] is “No significant alterations in clasping behavior”. The “general brain atrophy typical of untreated R6/2 mice” value in series [4] (R6/2 mice, 0.15 mg/kg continuous infusion by Alzet pump) is given as “did not display the general brain atrophy”. Moreover, the “recovery in brain hemisphere weight as compared to untreated non-transgenic mice” value in series [4] (R6/2 mice, 20.0 mg/kg i.p. every 48 hours) is listed as “greatest degree of recovery”. In addition, in series [4] (R6/2 mice, all doses (2.0, 5.0, 20.0 mg/kg i.p. every 48 hours), dose dependent effect), the brain hemisphere weight result is given as “greater than the weights of brain hemispheres from untreated R6/2 mice”. The brain weight entry in series [4] (two non-surviving treated R6/2 mice, 0.15 mg/kg continuous infusion by Alzet pump) was “increased brain weight”.
